In the supplement of paper PMC5908809:

Assays:
[1] = test system: normal NK cells expanded with K562-aAPC; test: percent inhibition of viability; higher = more inhibition; details: 72 h, IL-2 2.5 ng/mL
Protocol: (§1)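 Drug sensitivity and resistance testing on K562-aAPC-expanded normal NK cells: 5 concentrations (10-fold steps over a 10,000-fold range), 72 h at 37 °C, viability by CellTiter-Glo normalised to DMSO and benzethonium chloride controls; DSS from the fitted curve.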

NKL (IL-2 2.5 ng/mL) [2] = test: drug sensitivity score (DSS) (DSS units); higher = more sensitive; extreme values may be limits of the assay; details: 72 h
NK-YS (IL-2 2.5 ng/mL) [3] = test: as above; details: 72 h
[4] = test system: normal primary NK cells, pool 1 (3 donors) (IL-2 2.5 ng/mL); test: as above; details: 72 h
DERL-7 (IL-2 2.5 ng/mL) [5] = test: as above; details: 72 h
[6] = test system: normal primary NK cells, pool 2 (3 donors) (IL-2 2.5 ng/mL); test: as above; details: 72 h
[7] = test system: normal primary NK cells, pool 3 (3 donors) (IL-2 2.5 ng/mL); test: as above; details: 72 h
[8] = test system: normal primary NK cells, pool 1 (3 donors), resting (IL-2 0 ng/mL); test: as above; details: 72 h
KAI3 (IL-2 2.5 ng/mL) [9] = test: as above; details: 72 h
YT (IL-2 2.5 ng/mL) [10] = test: as above; details: 72 h
SNK-6 (IL-2 2.5 ng/mL) [11] = test: as above; details: 72 h
KHYG-1 (IL-2 2.5 ng/mL) [12] = test: as above; details: 72 h
NK-92 (IL-2 2.5 ng/mL) [13] = test: as above; details: 72 h
IMC-1 (IL-2 20 ng/mL) [14] = test: as above; details: 72 h
NKL (IL-2 2.5 ng/mL) [15] = test: percent inhibition of viability; higher = more inhibition; details: 72 h
NK-YS (IL-2 2.5 ng/mL) [16] = test: as above; details: 72 h
[17] = test system: normal primary NK cells, pool 1 (3 donors) (IL-2 2.5 ng/mL); test: as above; details: 72 h
DERL-7 (IL-2 2.5 ng/mL) [18] = test: as above; details: 72 h
[19] = test system: normal primary NK cells, pool 2 (3 donors) (IL-2 2.5 ng/mL); test: as above; details: 72 h
[20] = test system: normal primary NK cells, pool 3 (3 donors) (IL-2 2.5 ng/mL); test: as above; details: 72 h
[21] = test system: normal primary NK cells, pool 1 (3 donors), resting (IL-2 0 ng/mL); test: as above; details: 72 h
KAI3 (IL-2 2.5 ng/mL) [22] = test: as above; details: 72 h
YT (IL-2 2.5 ng/mL) [23] = test: as above; details: 72 h
SNK-6 (IL-2 2.5 ng/mL) [24] = test: as above; details: 72 h
KHYG-1 (IL-2 2.5 ng/mL) [25] = test: as above; details: 72 h
NK-92 (IL-2 2.5 ng/mL) [26] = test: as above; details: 72 h
IMC-1 (IL-2 20 ng/mL) [27] = test: as above; details: 72 h
[28] = test system: normal NK cells expanded with K562-aAPC; test: drug sensitivity score (DSS) (DSS units); higher = more sensitive; extreme values may be limits of the assay; details: 72 h; IL-2 2.5 ng/mL
Protocol: as §1

CC(C)C[C@H](NC(=O)[C@H](Cc1ccccc1)NC(=O)c1cnccn1)B(O)O [Bortezomib] (max concentration tested 1000 nM)
percent inhibition of viability [%]
Details	0.1 nM	1 nM	10 nM	100 nM	1000 nM
DERL-7 (IL-2 2.5 ng/mL) [18]	-10.9	21.2	101	101	100
IMC-1 (IL-2 20 ng/mL) [27]	-1.29	-3.94	101	101	101
KAI3 (IL-2 2.5 ng/mL) [22]	-14.4	-0.34	102	105	97
KHYG-1 (IL-2 2.5 ng/mL) [25]	-3.11	-0.47	105	108	100
NK-92 (IL-2 2.5 ng/mL) [26]	-4.96	-5.77	102	107	98.3
NK-YS (IL-2 2.5 ng/mL) [16]	-5.54	-1.32	104	106	98.5
NKL (IL-2 2.5 ng/mL) [15]	-12.9	-8.26	105	107	98.5
SNK-6 (IL-2 2.5 ng/mL) [24]	21.6	12.7	98.5	101	100
YT (IL-2 2.5 ng/mL) [23]	-2.41	0.1	103	107	101
[1]	-2.23	4.9	100	101	100
[17]	-11.7	-7.66	97.5	98.1	98.4
[19]	-2.25	0.14	94.5	95.3	96.2
[20]	-3.11	-8.2	98.5	98.7	99.1
[21]	-34.8	-55	91.9	94.3	94

Details	drug sensitivity score
DERL-7 (IL-2 2.5 ng/mL) [5]	33.9
IMC-1 (IL-2 20 ng/mL) [14]	30.2
KAI3 (IL-2 2.5 ng/mL) [9]	30.6
KHYG-1 (IL-2 2.5 ng/mL) [12]	30.9
NK-92 (IL-2 2.5 ng/mL) [13]	30.2
NK-YS (IL-2 2.5 ng/mL) [3]	30.7
NKL (IL-2 2.5 ng/mL) [2]	30.3
SNK-6 (IL-2 2.5 ng/mL) [11]	32.6
YT (IL-2 2.5 ng/mL) [10]	30.8
[4]	29.3
[6]	29.2
[7]	29.5
[8]	26.8
[28]	31.2

Nc1cc(C(F)(F)F)c(-c2cc(N3CCOCC3)nc(N3CCOCC3)n2)cn1 [Buparlisib] (max concentration tested 10000 nM)
percent inhibition of viability [%]
Details	1 nM	10 nM	100 nM	1000 nM	10000 nM
DERL-7 (IL-2 2.5 ng/mL) [18]	-4.02	6.38	3.7	42.2	89.9
IMC-1 (IL-2 20 ng/mL) [27]	-4.05	-1.36	2.62	-18.8	99.3
KAI3 (IL-2 2.5 ng/mL) [22]	-7.19	-5.48	-0.56	43	74.8
KHYG-1 (IL-2 2.5 ng/mL) [25]	-1.22	-0.26	7	57.9	101
NK-92 (IL-2 2.5 ng/mL) [26]	7.02	-3.67	15.7	52.4	96.2
NK-YS (IL-2 2.5 ng/mL) [16]	-0.4	-0.39	9.67	55	80
NKL (IL-2 2.5 ng/mL) [15]	-8.01	-1.84	8.57	69.1	73.8
SNK-6 (IL-2 2.5 ng/mL) [24]	33.1	31.2	38.8	73.2	92.7
YT (IL-2 2.5 ng/mL) [23]	-0.5	0.16	7.95	41.5	100
[1]	-3.33	-1.98	1.34	25.6	67
[17]	-1.97	-13.5	-2.5	4.32	28.6
[19]	-19.2	-7.45	6.25	8.14	26.6
[20]	-11.4	-7.58	0	0.01	19.4
[21]	6.15	-7.57	-1.1	2.62	26.9

Details	drug sensitivity score
DERL-7 (IL-2 2.5 ng/mL) [5]	9.98
IMC-1 (IL-2 20 ng/mL) [14]	4.51
KAI3 (IL-2 2.5 ng/mL) [9]	9.35
KHYG-1 (IL-2 2.5 ng/mL) [12]	12.6
NK-92 (IL-2 2.5 ng/mL) [13]	12.2
NK-YS (IL-2 2.5 ng/mL) [3]	11.7
NKL (IL-2 2.5 ng/mL) [2]	14
SNK-6 (IL-2 2.5 ng/mL) [11]	23.7
YT (IL-2 2.5 ng/mL) [10]	10.4
[4]	1.89
[6]	1.72
[7]	0.55
[8]	1.48
[28]	7.15
